According to publication PMC12668310, “High‐Throughput Synthesis and Screening of a Cyanimide Library Identifies Selective Inhibitors of ISG15‐Specific Protease mUSP18” (Angewandte Chemie (International Ed. in English), 2025):

Target: T1, mUSP18 (Mus musculus, UniProt Q9WTV6)
T1 construct: (46-368); His-tag (N); made in house
T1 sequence (Q9WTV6 46-368): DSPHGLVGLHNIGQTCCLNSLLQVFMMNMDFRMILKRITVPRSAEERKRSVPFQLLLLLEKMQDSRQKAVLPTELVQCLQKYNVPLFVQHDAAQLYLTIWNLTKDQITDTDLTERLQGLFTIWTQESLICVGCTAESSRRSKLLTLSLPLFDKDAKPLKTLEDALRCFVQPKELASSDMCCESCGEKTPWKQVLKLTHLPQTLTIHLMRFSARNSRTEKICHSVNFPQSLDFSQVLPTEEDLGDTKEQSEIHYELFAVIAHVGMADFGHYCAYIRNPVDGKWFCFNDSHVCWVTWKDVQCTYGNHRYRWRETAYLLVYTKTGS
Experiment: Covalent complex formation, intact protein mass spectrometry
Type: binding, murine
Details: 1.4 μM mUSP18, 14 µM compound, 30 min
Method: We further explored the potential of our mUSP18 hits. […] Based on previous data, these cyanimides likely bind to mUSP18 in a covalent manner. Indeed, intact protein mass spectrometry analysis confirmed the formation of a covalent stoichiometric mUSP18‐BB07CA902 complex, showing a mass difference of 311 Da, which corresponds to the addition of exactly one molecule of BB07CA902 (Figures 5c, S9). […] (Figure S9).
High-throughput screening
The screens were performed at room temperature in “flat bottom, non-treated, black […]
µM. The compounds (10 nL each) were transferred from the 1 mM daughter plates to the […]
Four wells containing DMSO
(10 nL) and four wells containing NEM (10 mM final concentration) were used in each plate […]
The percentage inhibition was calculated for each well using the […]
Where FIx is the fluorescence intensity of each well, FIpos is the average fluorescence intensity of the positive (NEM) control wells, and FIneg is the average fluorescence intensity of the negative (DMSO) control wells. […]
Samples were then diluted 3-fold with water and analyzed by mass spectrometry by injecting 2 μL into a Waters XEVO-G2 XS Q-TOF mass spectrometer equipped with an electrospray ion source in positive mode (capillary voltage 1.2 kV, desolvation gas flow 900 L/h, T = 60 °C) with a resolution of R = 26,000. […]

mass difference of covalent stoichiometric mUSP18-inhibitor complex: 311 Da
Structure (SMILES): Cc1cc(C(=O)N[C@H]2C[C@@H]3CN(C#N)C[C@@H]3C2)ccc1C(C)C [BB07CA902]
